# Source: patent publication US20180370927A1, “MICROBIOCIDAL OXADIAZOLE DERIVATIVES” (SYNGENTA PARTICIPATIONS AG, priority 2015, published 2018)
# Tests used:
# [1] = test system: Puccinia recondita f. Sp. Tritici; test: Puccinia recondita f. sp. tritici / wheat / leaf disc preventative (brown rust); format: in vivo; conditions: foliar, 200 ppm in the applied formulation, wheat leaf segments, preventative, assessed 7 to 9 days after application, read-out: disease control compared to untreated control leaf disks
# How it was run: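 Wheat cv. Kanzler leaf segments on agar sprayed with formulated compound in water, inoculated with rust spores 1 day later. Incubated at 19° C, 75% rh, 12 h light/12 h dark; percent disease control versus untreated scored 7 to 9 days after application; tested at 200 ppm.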
# [2] = test system: Puccinia recondita f. Sp. Tritici; test: Puccinia recondita f. sp. tritici / wheat / leaf disc curative (brown rust); format: in vivo; conditions: foliar, 200 ppm in the applied formulation, wheat leaf segments, curative (applied 1 day after inoculation), assessed 6 to 8 days after application, read-out: disease control compared to untreated control leaf disks
# How it was run: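 Wheat cv. Kanzler leaf segments on agar were inoculated with spores, kept dark at 19° C, 75% RH, then sprayed with diluted formulated compound 1 day after inoculation (curative). Incubation continued at 19° C, 75% RH, 12 h light/12 h dark, with percent disease control versus untreated scored 6 to 8 days after application.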
# [3] = test system: Phakopsora pachyrhizi; test: Phakopsora pachyrhizi / soybean / leaf disc preventative (Asian soybean rust); format: in vivo; conditions: foliar, 200 ppm in the applied formulation, soybean leaf disks, assessed 12 to 14 days after application, read-out: disease control compared to untreated control leaf disks
# How it was run: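 Soybean leaf discs on water agar were sprayed with formulated compound diluted in water, then inoculated one day later with spore suspension on the lower leaf surface. Held 24-36 h dark at 20° C., 75% RH, then 12 h light/day; percent disease control versus untreated scored 12 to 14 days after application.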
# [4] = test system: Glomerella lacenarium (Colletotrichum lacenarium); test: Glomerella lacenarium (Colletotrichum lacenarium) liquid culture / cucumber / preventative (anthracnose); format: cell-based; conditions: 20 ppm in the applied formulation, liquid culture in PDB, 24° C., 3 to 4 days after application, read-out: disease control (inhibition of growth, photometric) compared to untreated control
# How it was run: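 Cryostored conidia in potato dextrose broth added to DMSO compound solution in microtiter plates, incubated at 24° C. Growth inhibition read photometrically 3 to 4 days after application, as percent control versus untreated check; compounds tested at 20 ppm.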
melting point [°C],SMILES,pest or weed control at 200 ppm [1] [%],pest or weed control at 200 ppm [2] [%],pest or weed control at 200 ppm [3] [%],inhibition at 20 ppm [4] [%]
104 to 108,"O=C(NCc1ccc(-c2noc(C(F)(F)F)n2)cc1)C(=O)N1CCCCC1 [Compound 4.40, 2-oxo-2-(1-piperidyl)-N-[[4-[5-(trifluoromethyl)-1,2,4-oxadiazol-3-yl]phenyl]methyl] acetamide]",≥ 80,≥ 80,≥ 80,≥ 80
123 to 125,"CON1CCC(N(C)C(=O)C(=O)NCc2ccc(-c3noc(C(F)(F)F)n3)cc2)CC1 [Compound 4.44, N′-(1-methoxy-4-piperidyl)-N′-methyl-N-[[4-[5-(trifluoromethyl)-1,2,4-oxadiazol-3-yl]phenyl]methyl] oxamide]",≥ 80,≥ 80,≥ 80,≥ 80

# More lines, now with the values behind:
SMILES,melting point [°C],pest or weed control at 200 ppm [1] [%],pest or weed control at 200 ppm [2] [%],pest or weed control at 200 ppm [3] [%],inhibition at 20 ppm [4] [%]
"CO/N=C(\C)C(=O)NCc1ccc(-c2noc(C(F)(F)F)n2)cc1 [Compound 2.9, (2E)-2-methoxyimino-N-[[4-[5-(trifluoromethyl)-1,2,4-oxadiazol-3-yl]phenyl]methyl] propanamide]",75.7 to 76.2,≥ 80,≥ 80,≥ 80,≥ 80
"CN(Cc1ccc(-c2noc(C(F)(F)F)n2)cc1)C(=O)C(N)=O [Compound 4.30, N′-methyl-N′-[[4-[5-(trifluoromethyl)-1,2,4-oxadiazol-3-yl]phenyl]methyl] oxamide]",120 to 125,≥ 80,≥ 80,≥ 80,≥ 80
"CNC(=O)C(=O)N(Cc1ccc(-c2noc(C(F)(F)F)n2)cc1)OC [Compound 4.35, N′-methoxy-N-methyl-N′-[[4-[5-(trifluoromethyl)-1,2,4-oxadiazol-3-yl]phenyl]methyl] oxamide]",87.7 to 88.8,≥ 80,≥ 80,≥ 80,≥ 80
"Cc1cc(-c2noc(C(F)(F)F)n2)ccc1NC(=O)C(=O)N(C)C [Compound 4.37, N′,N′-dimethyl-N-[2-methyl-4-[5-(trifluoromethyl)-1,2,4-oxadiazol-3-yl]phenyl]oxamide]",79 to 89,≥ 80,≥ 80,≥ 80,≥ 80
"COCCNC(=O)C(=O)Nc1ccc(-c2noc(C(F)(F)F)n2)cc1C [Compound 4.38, N-(2-methoxyethyl)-N′-[2-methyl-4-[5-(trifluoromethyl)-1,2,4-oxadiazol-3-yl]phenyl] oxamide]",126 to 130,≥ 80,≥ 80,≥ 80,≥ 80
